How the values were obtained:
STAT3 = molecular target: T1, STAT3 (Homo sapiens, UniProt P40763); test: Western blot of total and phosphorylated STAT3 in human cell lines; type: cell-based; conditions: 50 μM; for p-STAT3 (Tyr705 and Ser727) / total STAT3: 48 hours
T1 construct: endogenous in cells; host or cells: HMC3 (ATCC CRL-3304), 1321N1 (Sigma-Aldrich), SK-N-BE(2)-M17 (ATCC CRL-2267)
Description: Cell and neuron cultures: Immortalized human microglia HMC3 cells (ATCC CRL-3304) and astrocytoma 1321N1 cells (Sigma-Aldrich; derived from human brain astrocytoma; Macintyre et al., 1972) were cultured in Eagle's minimum essential medium (EMEM) supplemented with 10% fetal bovine serum (FBS, Gibco) and 1% antibiotics and antimycotics (Gibco). Neuroblastoma SK-N-BE(2)-M17 (M17) (ATCC CRL-2267) cells were cultured in a 1:1 mixture of EMEM and F12 media, supplemented with 10% FBS plus 1% antibiotics and antimycotics.
HCQ treatment: Treatment with hydroxychloroquine Sulfate (Selleckchem, Catalog No.S4430) was performed at 50 μM concentration.
Western blot analysis: Protein extracts were obtained by lysing cells with a denaturing buffer containing 2% sodium dodecyl sulfate (SDS) (Sigma-Aldrich) in 50 mM HEPES. After boiling and sonication, whole-cell protein extracts were size-fractionated through polyacrylamide gels and transferred to nitrocellulose membranes (Bio-Rad). Membranes were blocked with 5% non-fat dry milk and immunoblotted. Primary antibodies were employed that recognized total STAT3 (124H6) (Cell Signaling, 9139T), phosphorylated STAT3 (Tyr705) (D3A7) XP® (Cell Signaling, 9145S), and phosphorylated STAT3 (Ser727) (Cell Signaling, 94994S).
Statistical analysis: Digitized images were obtained, processed, and quantified with ImageLab version 6.1 (BioRad Laboratories).

[1] = system: murine microglial cell line BV-2; test: LPS-induced neuroinflammation in BV-2 microglial cells (cytokines by MSD V-PLEX, MTT); type: cell-based, mouse
Description: Lipopolysaccharide (LPS)-Induced Neuroinflammation: The murine microglial cell line BV-2 was cultivated in DMEM medium supplemented with 10% FCS, 1% penicillin/streptomycin and 2 mM L-glutamine (culture medium). For LPS stimulation assay, 5000 BV-2 cells per well (uncoated 96 well plates) were plated out and the medium was changed to treatment medium (DMEM, 5% FCS, 2 mM L-glutamine). After changing cells to treatment medium, drug compounds were administered 1 hour before LPS stimulation (Sigma-Aldrich; L6529; 1 mg/ml stock in ddH2O, final concentration in well: 100 ng/ml (dilutions in medium)). Cells treated with vehicle, cells treated with LPS alone, as well as cells treated with LPS plus reference item (dexamethasone 10 μM, Sigma D4902) served as controls. After 24 h of stimulation, cell supernatants were collected for the cytokine measurement (V-PLEX Proinflammatory Panel 1 Mouse Kit, K15048D, Mesoscale) and cells were subjected to MTT assay.
MTT Assay: MTT solution was added to each well in a final concentration of 0.5 mg/mL. After 2 h, the MTT containing medium was aspirated. Cells were lysed in 3% SDS and the formazan crystals were dissolved in isopropanol/HCl. Optical density was measured with a Cytation 5 (Biotek) multimode reader at wavelength 570 nm. Values were calculated as percent of control values (vehicle control or lesion control).
After changing cells to treatment medium, HCQ (0.25 μM, 2.5 μM and 25 μM) was applied 1 hour before LPS stimulation (Sigma-Aldrich; L6529; 1 mg/ml stock in ddH2O, final concentration in well: 100 ng/ml (dilutions in medium)).

BV-2 cells = test: Aβ1-42 clearance assay; type: cell-based, mouse
Description: AB Clearance: For the amyloid beta (Aβ) clearance assay, 20000 BV-2 cells per well (uncoated 96 well plates) were plated out. After changing cells to treatment medium, drug compounds were administered 1 hour before Aβ stimulation (Bachem 4061966; final concentration in well: 200 ng/ml (dilutions in medium)). Cells treated with vehicle and cells treated with Aβ alone served as controls. After 3 h of Aβ stimulation, cell supernatants were collected for the Aβ measurement and cells were carefully washed twice with PBS and thereafter lysed in 35 μL cell lysis buffer (50 mM Tris-HCl, pH 7.4, 150 mM NaCl, 5 mM EDTA, 1% SDS) supplemented with protease inhibitors. Supernatants and cell lysates were analyzed for human Aβ42 with MSD® V-PLEX Human Aβ42 Peptide (6E10) Kit (K151LBE, Mesoscale Discovery). The immune assay was carried out according to the manual and plates were read on the MESO QuickPlex SQ 120.
Aβ1-42 clearance: For Abeta (Aβ1-42) clearance assay, 20,000 BV-2 cells per well (uncoated 96 well plates) were plated out. After changing cells to treatment medium, HCQ (0.25 μM, 2.5 μM and 25 μM) was applied 1 hour before Aβ1-42 stimulation (Bachem 4061966; final concentration in well: 200 ng/ml (dilutions in medium)). Cells treated with vehicle (0.1% DMSO) and cells treated with Aβ1-42 alone served as controls. After 3 h of Aβ1-42 stimulation, cell supernatants were collected for the Aβ1-42 measurement and cells were carefully washed twice with PBS and thereafter lysed in 35 μL cell lysis buffer (50 mM Tris-HCl, pH 7.4, 150 mM NaCl, 5 mM EDTA, 1% SDS) supplemented with protease inhibitors. Supernatants and cell lysates were analyzed for human Aβ1-42 with MSD® V-PLEX Human Aβ42 Peptide (6E10) Kit (K151LBE, Mesoscale Discovery). The immune assay was carried out according to the manufacturer's manual and plates were read on the MESO QuickPlex SQ 120.
Aβ Clearance: 20,000 BV2 cells per well (uncoated 96-well plates were plated out. After changing cells to treatment medium, drug compounds were administered 1 hour before Aβ stimulation (final concentration in well 200 ng/ml; dilutions in medium). Cells treated with vehicle and cells treated with Aβ alone served as controls. After 3 hours of Aβ stimulation, cell supernatants were collected for the Aβ measurement and cells were carefully washed twice with PBS and thereafter lysed in 35 μl of cell lysis buffer (50 mM tris-HCl, pH 7.4, 150 mM NaCl, 5 mM EDTA, and 1% SDS) supplemented with protease inhibitors. Supernatants and cell lysates were analyzed for human Aβ42 with the MSD V-PLEX Human Aβ42 Peptide (6E10) Kit (K151LBE, Mesoscale Discovery). The immune assay was carried out according to the manual, and plates were read on MESO QuickPlex SQ 120 (Meso Scale Diagnostics, Rockville, MD).
For Aβ clearance assay, 20,000 BV-2 cells per well (uncoated 96 well plates) were plated out. After 24 hours, medium was changed to treatment medium (DMEM, 5% FCS, 2 mM L-glutamine) and cells were maintained in treatment medium for the remaining culture period. After changing cells to treatment medium, the test items were administered 1 hour before Aβ stimulation (Bachem 4061966; final concentration in well: 200 ng/mL (dilutions in medium)). Cells treated with vehicle, cells treated with Aβ alone, as well as wells with Aβ but no cells served as controls. All wells were handled the same way. After 3 h of Aβ stimulation, cell supernatants were collected for the Aβ measurement and cells were carefully washed twice with PBS and thereafter lysed in 35 μl cell lysis buffer (50 mM Tris-HCl, pH 7.4, 150 mM NaCl, 5 mM EDTA, 1% SDS) supplemented with protease inhibitors. Cells were incubated for 15 min at RT on a plate shaker, samples were frozen at −80° C. until further use. The experiment was performed in n=6 technical replicates for all groups. […]

T1 sequence (P40763 whole entry): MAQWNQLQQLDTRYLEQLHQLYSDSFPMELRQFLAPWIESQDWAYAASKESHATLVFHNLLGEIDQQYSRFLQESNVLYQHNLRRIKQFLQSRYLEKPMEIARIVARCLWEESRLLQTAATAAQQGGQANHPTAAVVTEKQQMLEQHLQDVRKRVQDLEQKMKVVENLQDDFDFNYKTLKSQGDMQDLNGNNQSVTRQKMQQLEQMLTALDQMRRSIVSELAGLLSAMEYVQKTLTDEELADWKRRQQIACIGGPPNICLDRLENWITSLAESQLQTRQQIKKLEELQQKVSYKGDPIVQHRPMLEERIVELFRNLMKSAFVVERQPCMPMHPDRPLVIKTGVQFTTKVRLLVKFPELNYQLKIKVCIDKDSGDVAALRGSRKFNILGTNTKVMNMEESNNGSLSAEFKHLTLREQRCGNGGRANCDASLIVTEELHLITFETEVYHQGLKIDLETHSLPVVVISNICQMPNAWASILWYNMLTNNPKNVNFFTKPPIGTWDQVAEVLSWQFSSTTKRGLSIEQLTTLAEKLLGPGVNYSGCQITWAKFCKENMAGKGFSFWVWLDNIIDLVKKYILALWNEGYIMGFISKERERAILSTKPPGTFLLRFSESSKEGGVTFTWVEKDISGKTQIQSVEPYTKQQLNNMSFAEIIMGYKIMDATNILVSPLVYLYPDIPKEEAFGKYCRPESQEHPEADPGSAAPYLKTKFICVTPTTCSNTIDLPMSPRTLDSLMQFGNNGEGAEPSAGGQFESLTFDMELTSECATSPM

| p-STAT3 (Tyr705 and Ser727) (STAT3; 1321N1 cells) | total STAT3 (STAT3; 1321N1 cells) | p-STAT3 (Tyr705 and Ser727) (STAT3; HMC3 cells) | total STAT3 (STAT3; HMC3 cells) | phosphorylated STAT3 and total STAT3 (STAT3; SK-N-BE(2)-M17 cells) | Structure (SMILES) | cell viability (STAT3) | IL-1b ([1]; 2.5 μM, 25 μM, LPS) | IL-6 ([1]; 2.5 μM, 25 μM, LPS) | IL-10 ([1]; 2.5 μM, 25 μM, LPS) | IL-12p70 ([1]; 2.5 μM, 25 μM, LPS) | TNF-alpha secretion ([1]; 25 μM, LPS) | cell viability ([1]; HCQ in LPS assay) | Aβ1-42 clearance (BV-2 cells; 25 μM) | Aβ1-42 in the supernatant (BV-2 cells; 25 μM) | Aβ1-42 supernatant:lysate ratio (BV-2 cells; 25 μM) | cell viability (BV-2 cells; 25 μM) | effect in Aβ clearance (BV2 cells) (BV-2 cells; posterior probability of a protective effect, Bayesian dose-response model) |
| --- | --- | --- | --- | --- | --- | --- | --- | --- | --- | --- | --- | --- | --- | --- | --- | --- | --- |
| reduced | without alteration | reduced | without alteration | non-significant | CCN(CCO)CCCC(C)Nc1ccnc2cc(Cl)ccc12 (centres unmarked) [HCQ, hydroxychloroquine] | did not have adverse effects on cell viability | dose dependent (2.5 μM<25 μM) reduction | dose dependent (2.5 μM<25 μM) reduction | dose dependent (2.5 μM<25 μM) reduction | dose dependent (2.5 μM<25 μM) reduction | reduction | without any adverse effects on cell viability | increased | reduced | lowering | without adverse effects on cell viability |  |
|  |  |  |  |  | C[C@H](CCC(=O)NCCS(=O)(=O)O)[C@H]1CC[C@H]2[C@@H]3[C@@H](O)C[C@@H]4C[C@H](O)CC[C@]4(C)[C@H]3CC[C@]12C [TUDCA, tauroursodeoxycholic acid] |  |  |  |  |  |  |  |  |  |  |  | strongly protective |

Source: patent US20240269128A1, “COMPOUNDS FOR TREATING OR PREVENTING ALZHEIMER'S DISEASE” (THE UNITED STATES OF AMERICA, as represented by the …, priority 2021, published 2024)
